Results from paper PMC8157031, “Identification of Binding Regions of Bilirubin in the Ligand-Binding Pocket of the Peroxisome Proliferator-Activated Receptor-A (PPARalpha)” (Molecules, 2021).
Residue numbers refer to the chain shown, from its start.

Assays:
PPARα [1] = molecular target: T1, PPARα (Mus musculus, UniProt P23204, A333G); test: bilirubin autofluorescence with purified mutant; binding reduced by […]
T1 construct: gene Ppara; full-length histidine-tagged mouse PPARα
T1 sequence (P23204 1-468 A333G): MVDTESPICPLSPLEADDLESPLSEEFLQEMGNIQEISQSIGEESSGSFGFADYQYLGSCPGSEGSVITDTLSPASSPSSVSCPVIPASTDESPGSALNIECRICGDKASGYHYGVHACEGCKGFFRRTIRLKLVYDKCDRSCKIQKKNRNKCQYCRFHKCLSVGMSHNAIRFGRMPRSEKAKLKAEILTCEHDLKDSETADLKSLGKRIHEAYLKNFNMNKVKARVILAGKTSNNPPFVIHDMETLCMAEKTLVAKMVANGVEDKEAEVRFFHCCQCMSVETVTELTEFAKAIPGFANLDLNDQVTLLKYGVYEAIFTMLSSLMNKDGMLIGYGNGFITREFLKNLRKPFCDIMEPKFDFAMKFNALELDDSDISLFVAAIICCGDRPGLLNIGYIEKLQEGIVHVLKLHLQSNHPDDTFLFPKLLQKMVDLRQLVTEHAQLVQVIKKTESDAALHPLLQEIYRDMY

[2] = molecular target: T2, bovine serum albumin (BSA) (Bos taurus, UniProt P02769); test: bilirubin autofluorescence titration (excitation […] nm); type: binding
T2 construct: gene ALB

PPARα [3] = molecular target: T3, PPARα (Mus musculus, UniProt P23204, T283G); test: bilirubin autofluorescence with purified mutant; binding reduced by […]
T3 construct: gene Ppara; full-length histidine-tagged mouse PPARα
T3 sequence (P23204 1-468 T283G): T1 sequence (P23204 1-468 A333G) with T283G, G333A

PPARα [4] = molecular target: T4, PPARα (Mus musculus, UniProt P23204); test: bilirubin autofluorescence titration with purified His-PPARα; type: binding
T4 construct: gene Ppara; full-length histidine-tagged mouse PPARα
T4 sequence (P23204 1-468): T1 sequence (P23204 1-468 A333G) with G333A

[5] = molecular target: T2, bovine serum albumin (BSA); test: biliverdin autofluorescence dose-response (excitation […] nm); type: binding

T2 sequence (P02769 25-607): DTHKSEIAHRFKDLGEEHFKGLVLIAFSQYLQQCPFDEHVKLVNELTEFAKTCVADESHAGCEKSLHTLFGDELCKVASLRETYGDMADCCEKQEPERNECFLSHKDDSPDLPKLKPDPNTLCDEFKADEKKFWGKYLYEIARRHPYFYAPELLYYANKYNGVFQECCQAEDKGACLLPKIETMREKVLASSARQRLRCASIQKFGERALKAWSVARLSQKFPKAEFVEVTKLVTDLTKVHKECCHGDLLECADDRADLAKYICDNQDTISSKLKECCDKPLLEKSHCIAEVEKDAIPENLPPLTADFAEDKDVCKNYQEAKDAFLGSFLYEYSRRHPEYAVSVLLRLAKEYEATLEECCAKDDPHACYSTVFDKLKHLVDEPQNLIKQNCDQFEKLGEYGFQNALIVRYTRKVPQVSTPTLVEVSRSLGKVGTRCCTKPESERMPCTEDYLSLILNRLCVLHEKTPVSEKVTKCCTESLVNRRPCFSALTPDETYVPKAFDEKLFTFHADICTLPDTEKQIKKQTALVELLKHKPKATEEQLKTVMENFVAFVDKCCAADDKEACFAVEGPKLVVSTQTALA

| SMILES | % reduction of binding (PPARα [1]) | Kd [2] [µM] | % reduction of binding (PPARα [3]) | Kd (PPARα [4]) [µM] | biliverdin autofluorescence dose-response (excitation 440 nm) [5] |
| --- | --- | --- | --- | --- | --- |
| C=CC1=C(C)/C(=C/c2[nH]c(Cc3[nH]c(/C=C4\NC(=O)C(C)=C4C=C)c(C)c3CCC(=O)O)c(CCC(=O)O)c2C)NC1=O [BR, bilirubin] | 17.0 % reduction of binding | 11.1 | 11.4 % reduction of binding | 5.13 | – |
| C=CC1=C(C)/C(=C/C2=NC(=C\c3[nH]c(/C=C4\NC(=O)C(C)=C4C=C)c(C)c3CCC(=O)O)/C(CCC(=O)O)=C2C)NC1=O [BV, biliverdin] | – | – | – | – | The results in Figure 1C show a dose-dependent increase in fluorescence for biliverdin bound to albumin |
